Test results taken from PMC8267566, “Human GPR17 missense variants identified in metabolic disease patients have distinct downstream signaling profiles” (The Journal of Biological Chemistry, 2021).

Tests used:
Experiment in all cases: Tango β-arrestin recruitment assay
Format in all cases: cell-based
[1] = target: T1, hGPR17L-WT-Tango (Homo sapiens, UniProt Q13304)
T1 construct: Tango fusion module; host or cells: HTLA (HEK293T-derived)
Protocol: (§1) HTLA cells were seeded at 10,000 cells/well into white, opaque, poly-D-lysine-coated 96-well plates and transfected with hGPR17L-WT-Tango or hGPR17L-variant-Tango plasmids the following day using lipofectamine 3000 according to the manufacturer's protocol. The next day, cells were incubated at 37 °C and 5% CO2 in serum-free growth media for a 4 h serum starvation. MDL29,951 was then diluted in assay buffer (HBSS, 20 mM HEPES, pH 7.2), added to the cells, and incubated for 16 h at 37 °C and 5% CO2. Drug treatment was decanted and 80 μl/well of Promega Bright-Glo reagent (diluted 20× in assay buffer) (E2610; Promega Corporation) was added and incubated at room temperature for 15 min. Luminescence (1 s per well integration time) was read on a Molecular Devices SpectraMax iD5 plate reader.

[2] = target: T2, hGPR17L-R248Q-Tango (Homo sapiens, UniProt Q13304, R248Q)
T2 construct: Tango fusion module; host or cells: HTLA (HEK293T-derived)
T2 sequence (Q13304 whole entry R248Q, the tested form may be a part): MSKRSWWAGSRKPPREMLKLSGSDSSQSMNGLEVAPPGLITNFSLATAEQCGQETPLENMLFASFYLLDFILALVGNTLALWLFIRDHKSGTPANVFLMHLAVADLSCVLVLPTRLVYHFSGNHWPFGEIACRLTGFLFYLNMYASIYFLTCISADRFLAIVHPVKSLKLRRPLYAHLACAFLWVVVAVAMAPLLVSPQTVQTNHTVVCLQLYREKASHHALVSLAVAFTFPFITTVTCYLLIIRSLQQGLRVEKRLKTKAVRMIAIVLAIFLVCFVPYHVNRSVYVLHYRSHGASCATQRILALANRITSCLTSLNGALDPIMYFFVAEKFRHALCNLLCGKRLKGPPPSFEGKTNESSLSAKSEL
Protocol: as §1

[3] = target: T3, hGPR17L-G136S-Tango (Homo sapiens, UniProt Q13304, G136S); conditions: HTLA cells, 30 μM MDL29,951
T3 construct: Tango fusion module; host or cells: HTLA (HEK293T-derived)
T3 sequence (Q13304 whole entry G136S, the tested form may be a part): as the sequence (Q13304 whole entry R248Q, the tested form may be a part) above, with G136S, Q248R counted along it
Protocol: as §1

[4] = target: T4, hGPR17L-D105N-Tango (Homo sapiens, UniProt Q13304, D105N)
T4 construct: Tango fusion module; host or cells: HTLA (HEK293T-derived)
T4 sequence (Q13304 whole entry D105N, the tested form may be a part): as the sequence (Q13304 whole entry R248Q, the tested form may be a part) above, with D105N, Q248R counted along it
Protocol: as §1

[5] = target: T5, hGPR17L-V96M-Tango (Homo sapiens, UniProt Q13304, V96M); conditions: HTLA cells, MDL29,951 0.5 nM to 30 μM
T5 construct: Tango fusion module; host or cells: HTLA (HEK293T-derived)
T5 sequence (Q13304 whole entry V96M, the tested form may be a part): as the sequence (Q13304 whole entry R248Q, the tested form may be a part) above, with V96M, Q248R counted along it
Protocol: as §1

[6] = target: T6, hGPR17L-G354V-Tango (Homo sapiens, UniProt Q13304, G354V)
T6 construct: Tango fusion module; host or cells: HTLA (HEK293T-derived)
T6 sequence (Q13304 whole entry G354V, the tested form may be a part): as the sequence (Q13304 whole entry R248Q, the tested form may be a part) above, with Q248R, G354V counted along it
Protocol: as §1

[7] = target: T7, hGPR17L-A131T-Tango (Homo sapiens, UniProt Q13304, A131T)
T7 construct: Tango fusion module; host or cells: HTLA (HEK293T-derived)
T7 sequence (Q13304 whole entry A131T, the tested form may be a part): as the sequence (Q13304 whole entry R248Q, the tested form may be a part) above, with A131T, Q248R counted along it
Protocol: as §1

[8] = target: T8, hGPR17L-R301H-Tango (Homo sapiens, UniProt Q13304, R301H)
T8 construct: Tango fusion module; host or cells: HTLA (HEK293T-derived)
T8 sequence (Q13304 whole entry R301H, the tested form may be a part): as the sequence (Q13304 whole entry R248Q, the tested form may be a part) above, with Q248R, R301H counted along it
Protocol: as §1

[9] = target: T9, hGPR17L-F43L-Tango (Homo sapiens, UniProt Q13304, F43L)
T9 construct: Tango fusion module; host or cells: HTLA (HEK293T-derived)
T9 sequence (Q13304 whole entry F43L, the tested form may be a part): as the sequence (Q13304 whole entry R248Q, the tested form may be a part) above, with F43L, Q248R counted along it
Protocol: as §1

[10] = target: T10, hGPR17L-V103M-Tango (Homo sapiens, UniProt Q13304, V103M)
T10 construct: Tango fusion module; host or cells: HTLA (HEK293T-derived)
T10 sequence (Q13304 whole entry V103M, the tested form may be a part): as the sequence (Q13304 whole entry R248Q, the tested form may be a part) above, with V103M, Q248R counted along it
Protocol: as §1

[11] = read-out: β-arrestin recruitment EC50, HTLA cells

T1 sequence (Q13304 whole entry, the tested form may be a part): as the sequence (Q13304 whole entry R248Q, the tested form may be a part) above, with Q248R counted along it

**Q.** Which results are given for `O=C(O)CCc1c(C(=O)O)[nH]c2cc(Cl)cc(Cl)c12` [MDL29,951]?
**A.** maximum β-arrestin recruitment response ([1]; HTLA cells): 1.78 ± 0.09 fold over baseline; β-arrestin recruitment Efficacy (% of WT span) ([1]; HTLA cells): 100 % of WT span; β-arrestin recruitment pEC50 ± SEM ([1]; HTLA cells): 7.02 ± 0.02; EC50 [1, 11]: 96 nM; β-arrestin recruitment Efficacy (% of WT span) ([2]; HTLA cells): 73 ± 16 % of WT span; β-arrestin recruitment pEC50 ± SEM ([2]; HTLA cells): 7.55 ± 0.16; EC50 [2, 11]: 28 nM; agonist-stimulated β-arrestin recruitment [3]: only a modest response; β-arrestin recruitment Efficacy (% of WT span) ([4]; HTLA cells): 100 ± 5.0 % of WT span; β-arrestin recruitment pEC50 ± SEM ([4]; HTLA cells): 6.53 ± 0.03; EC50 [4, 11]: 290 nM; agonist-stimulated β-arrestin recruitment [5]: no apparent agonist-stimulated β-arrestin recruitment; β-arrestin recruitment pEC50 ± SEM ([6]; HTLA cells): 6.96 ± 0.04; EC50 [6, 11]: 110 nM; β-arrestin recruitment Efficacy (% of WT span) ([7]; HTLA cells): 97 ± 5.2 % of WT span; β-arrestin recruitment pEC50 ± SEM ([7]; HTLA cells): 6.55 ± 0.06; EC50 [7, 11]: 280 nM; β-arrestin recruitment Efficacy (% of WT span) ([8]; HTLA cells): 69 ± 9.0 % of WT span; β-arrestin recruitment pEC50 ± SEM ([8]; HTLA cells): 6.55 ± 0.04; EC50 [8, 11]: 280 nM; β-arrestin recruitment Efficacy (% of WT span) ([9]; HTLA cells): 61 ± 13 % of WT span; β-arrestin recruitment pEC50 ± SEM ([9]; HTLA cells): 7.08 ± 0.03; EC50 [9, 11]: 83 nM; β-arrestin recruitment Efficacy (% of WT span) ([10]; HTLA cells): 84 ± 13 % of WT span; β-arrestin recruitment pEC50 ± SEM ([10]; HTLA cells): 6.69 ± 0.05; EC50 [10, 11]: 210 nM
